Legend:
Assay type in all cases: in vivo
[1] = system: Alopecurus myosuroides (ALOMY); experiment: Example A pre-emergence herbicidal activity, glasshouse pot test; conditions: Rate 250 g/ha, evaluated 20 days later, 100=total damage to plant, 0=no damage to plant
Method: (§1) Seeds of a variety of test species were sown in standard soil in pots. After cultivation for one day (pre-emergence) or after 10 days cultivation (post-emergence) under controlled conditions in a glasshouse, the plants were sprayed with an aqueous spray solution derived from the formulation of the technical active ingredient of formula I in 0.6 ml acetone and 45 ml formulation solution containing 10.6% Emulsogen EL (Registry number 61791-12-6), 42.2% N-methylpyrrolidone, 42.2% dipropylene glycol monomethyl ether (Registry number 34590-94-8) and 0.2% X-77 (Registry number 11097-66-8). The test plants were then grown in a greenhouse under optimum conditions until, 15 days later for post-emergence and 20 days for pre-emergence, the test was evaluated (100=total damage to plant; 0=no damage to plant). The compound of Example 1-8-a-1 from WO99/48869 was also sprayed for comparison. Alopecurus myosuroides (ALOMY), Avena fatua (AVEFA), Lolium perenne (LOLPE), Setaria faberi (SETFA), Digitaria sanguinalis (DIGSA), Echinochloa crus-galli (ECHCG) and Sorghum bicolor (SORVU) Pre-Emergence Activity

Avena fatua (AVEFA) [2] = experiment: as above; conditions: Rate 250 g/ha, evaluated 20 days later, 100=total damage to plant, 0=no damage to plant
Method: as §1

[3] = system: Digitaria sanguinalis (DIGSA); experiment: as above; conditions: Rate 250 g/ha, evaluated 20 days later, 100=total damage to plant, 0=no damage to plant
Method: as §1

[4] = system: Echinochloa crus-galli (ECHCG); experiment: as above; conditions: Rate 250 g/ha, evaluated 20 days later, 100=total damage to plant, 0=no damage to plant
Method: as §1

Lolium perenne (LOLPE) = experiment: as above; conditions: Rate 250 g/ha, evaluated 20 days later, 100=total damage to plant, 0=no damage to plant
Method: as §1

Setaria faberi (SETFA) [5] = experiment: as above; conditions: Rate 250 g/ha, evaluated 20 days later, 100=total damage to plant, 0=no damage to plant
Method: as §1

[6] = system: Alopecurus myosuroides (ALOMY); experiment: Example A post-emergence herbicidal activity, glasshouse pot test; conditions: Rate 15 g/ha, evaluated 15 days later, 100=total damage to plant, 0=no damage to plant
Method: as §1, with “Post-Emergence” for “Pre-Emergence”

Avena fatua (AVEFA) [7] = experiment: as above; conditions: Rate 15 g/ha, evaluated 15 days later, 100=total damage to plant, 0=no damage to plant
Method: as §1, with “Post-Emergence” for “Pre-Emergence”

[8] = system: Digitaria sanguinalis (DIGSA); experiment: as above; conditions: Rate 15 g/ha, evaluated 15 days later, 100=total damage to plant, 0=no damage to plant
Method: as §1, with “Post-Emergence” for “Pre-Emergence”

[9] = system: Echinochloa crus-galli (ECHCG); experiment: as above; conditions: Rate 15 g/ha, evaluated 15 days later, 100=total damage to plant, 0=no damage to plant
Method: as §1, with “Post-Emergence” for “Pre-Emergence”

Setaria faberi (SETFA) [10] = experiment: as above; conditions: Rate 15 g/ha, evaluated 15 days later, 100=total damage to plant, 0=no damage to plant
Method: as §1, with “Post-Emergence” for “Pre-Emergence”

Sorghum bicolor (SORVU) = experiment: as above; conditions: Rate 15 g/ha, evaluated 15 days later, 100=total damage to plant, 0=no damage to plant
Method: as §1, with “Post-Emergence” for “Pre-Emergence”

[11] = system: Alopecurus myosuroides (ALOMY); experiment: Example B pre-emergence herbicidal activity, glasshouse pot test; conditions: 312 h, rate 250 g/ha, evaluated after 13 days, scale 0-100, read-out: Pre-emergence activity ALOMY (100=total damage to plant; 0=no damage to plant)
Method in brief: (§2)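 Pots were sprayed one day after sowing with the active ingredient in acetone/water (50:50) containing 0.5% Tween 20. Plants were kept in a glasshouse at 24/16° C day/night, 14 h light, 65% humidity. Damage was scored 13 days later (0 none to 100 total).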

Avena fatua (AVEFA) [12] = experiment: as above; conditions: 312 h, rate 250 g/ha, evaluated after 13 days, scale 0-100, read-out: Pre-emergence activity AVEFA (100=total damage to plant; 0=no damage to plant)
Method in brief: as §2

[13] = system: Echinochloa crus-galli (ECHCG); experiment: as above; conditions: 312 h, rate 250 g/ha, evaluated after 13 days, scale 0-100, read-out: Pre-emergence activity ECHCG (100=total damage to plant; 0=no damage to plant)
Method in brief: as §2

Setaria faberi (SETFA) [14] = experiment: as above; conditions: rate 250 g/ha, evaluated after 13 days, scale 0-100
Method in brief: as §2

[15] = system: Alopecurus myosuroides (ALOMY); experiment: Example B post-emergence herbicidal activity, glasshouse pot test; conditions: 312 h, rate 250 g/ha, evaluated after 13 days, scale 0-100, read-out: Post-emergence activity ALOMY (100=total damage to plant; 0=no damage to plant)
Method in brief: (§3)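 Seeds sown in standard soil, grown 8 days in glasshouse (24/16 °C day/night, 14 h light, 65% humidity), then sprayed post-emergence with compound in acetone/water (50:50) containing 0.5% Tween 20. Damage scored visually after 13 days on a 0–100 scale (100 = total damage).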

Avena fatua (AVEFA) [16] = experiment: as above; conditions: 312 h, rate 250 g/ha, evaluated after 13 days, scale 0-100, read-out: Post-emergence activity AVEFA (100=total damage to plant; 0=no damage to plant)
Method in brief: as §3

[17] = system: Echinochloa crus-galli (ECHCG); experiment: as above; conditions: 312 h, rate 250 g/ha, evaluated after 13 days, scale 0-100, read-out: Post-emergence activity ECHCG (100=total damage to plant; 0=no damage to plant)
Method in brief: as §3

Setaria faberi (SETFA) [18] = experiment: as above; conditions: rate 250 g/ha, evaluated after 13 days, scale 0-100
Method in brief: as §3

| Structure (SMILES) | Pre-Emergence Activity ALOMY (damage to plant) [1] | Pre-Emergence Activity AVEFA (damage to plant) (Avena fatua (AVEFA) [2]) | Pre-Emergence Activity DIGSA (damage to plant) [3] | Pre-Emergence Activity ECHCG (damage to plant) [4] | Pre-Emergence Activity LOLPE (damage to plant) (Lolium perenne (LOLPE)) | Pre-Emergence Activity SETFA (damage to plant) (Setaria faberi (SETFA) [5]) | Post-Emergence Activity ALOMY (damage to plant) [6] | Post-Emergence Activity AVEFA (damage to plant) (Avena fatua (AVEFA) [7]) | Post-Emergence Activity DIGSA (damage to plant) [8] | Post-Emergence Activity ECHCG (damage to plant) [9] | Post-Emergence Activity SETFA (damage to plant) (Setaria faberi (SETFA) [10]) | Post-Emergence Activity SORVU (damage to plant) (Sorghum bicolor (SORVU)) | pest or weed control at 250 g/ha [11] [%] | pest or weed control at 250 g/ha (Avena fatua (AVEFA) [12]) [%] | pest or weed control at 250 g/ha [13] [%] | Pre-emergence activity SETFA (100=total damage to plant; 0=no damage to plant) (Setaria faberi (SETFA) [14]) | pest or weed control at 250 g/ha [15] [%] | pest or weed control at 250 g/ha (Avena fatua (AVEFA) [16]) [%] | pest or weed control at 250 g/ha [17] [%] | Post-emergence activity SETFA (100=total damage to plant; 0=no damage to plant) (Setaria faberi (SETFA) [18]) |
| --- | --- | --- | --- | --- | --- | --- | --- | --- | --- | --- | --- | --- | --- | --- | --- | --- | --- | --- | --- | --- |
| CCc1ccc(-c2ccc(Cl)cc2)cc1C1=C(O)CC(C)(C)CC1=O [Compound T3] | 90 | 50 | 100 | 100 | 100 | 80 | 50 | 20 | 70 | 70 | 70 | 70 | 60 | 20 | 100 | 100 | 100 | 20 | 100 | 100 |
| CCc1ccc(-c2ccc(Cl)cc2)cc1C1=C(O)CCCC1=O [Compound T2] | 60 | 70 | 80 | 100 | 70 | 80 | 0 | 0 | 80 | 90 | 80 | 70 | 40 | 40 | 100 | 100 | 90 | 80 | 100 | 100 |
| CCc1ccc(-c2ccc(Cl)cc2)cc1C1=C(O)C(C)(C)CCC1=O [Compound T1, 2-(4′-chloro-4-ethylbiphen-3-yl)-4,4-dimethyl-1,3-cyclohexanedione] | 60 | 70 |  | 90 | 90 | 100 | 0 | 10 | 80 | 70 | 90 | 50 | 50 | 0 | 100 | 100 | 90 | 40 | 100 | 100 |
| Cc1ccc(-c2ccc(Cl)cc2)cc1C1=C(O)C(C)(C)CCC1=O [Example 1-8-a-1 from WO99/48869, reference compound] | 20 | 0 | 70 | 90 | 20 | 30 | 0 | 0 | 20 | 70 | 20 | 0 |  |  |  |  |  |  |  |  |
